Test results published in patent US9833497B2, “Human originated EGF domain proteins and use of the same” (CHENGDU SOURCEBIO LIMITED-LIABILITY COMPANY, priority 2013, dated 2017).

Assays:
Assay type in all cases: cell-based
E. coli DH5α = assay: Antibacterial activity: MIC and growth curve against E. coli DH5α in 96-well plate; settings: minimal inhibitory concentration against E. coli DH5α; 96-well plate, 5×10^5 CFU/mL, 37° C., judged after 8 h
Method in brief: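 Log-phase bacteria (OD600 ~0.5) resuspended in LB at 5×10^5 CFU/mL, exposed to recombinant protein at 50, 25, 12.5 μg/mL final in triplicate, 37 °C shaking at 175 rpm. OD600 read every 30 min; MIC is lowest concentration showing no growth.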

E. coli BL21 = assay: MIC against Gram-negative bacteria: E. coli BL21
Method in brief: (§1)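 Antibacterial activity of purified human EGF domain proteins: two-fold concentration series, triplicate wells, LB broth, 5×10^5 CFU/mL bacteria, 37° C shaking incubation. The lowest concentration without growth defines the MIC.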

Pseudomonas aeruginosa = assay: MIC against Gram-negative bacteria: Pseudomonas aeruginosa
Method in brief: as §1

Klebsiella pneumonia = assay: MIC against Gram-negative bacteria: Klebsiella pneumonia
Method in brief: as §1

Enterobacter cloacae = assay: MIC against Gram-negative bacteria: Enterobacter cloacae
Method in brief: as §1

Aeromonas hydrophila = assay: MIC against Gram-negative bacteria: Aeromonas hydrophila
Method in brief: as §1

Citrobacter diversus = assay: MIC against Gram-negative bacteria: Citrobacter diversus
Method in brief: as §1

Moraxella catarrhalis = assay: MIC against Gram-negative bacteria: Moraxella catarrhalis
Method in brief: as §1

Proteus mirabilis = assay: MIC against Gram-negative bacteria: Proteus mirabilis
Method in brief: as §1

Proteus vulgaris = assay: MIC against Gram-negative bacteria: Proteus vulgaris
Method in brief: as §1

Serratia marcescens = assay: MIC against Gram-negative bacteria: Serratia marcescens
Method in brief: as §1

[1] = 10 h cultivation at 37° C., 5×10^5 CFU/mL, two-fold serial dilution
[2] = E. coli BL21, 10 h cultivation at 37° C., 5×10^5 CFU/mL
[3] = P. aeruginosa, 10 h cultivation at 37° C., 5×10^5 CFU/mL
[4] = K. pneumonia, 10 h cultivation at 37° C., 5×10^5 CFU/mL
[5] = E. cloacae, 10 h cultivation at 37° C., 5×10^5 CFU/mL
[6] = A. hydrophila, 10 h cultivation at 37° C., 5×10^5 CFU/mL
[7] = C. diversus, 10 h cultivation at 37° C., 5×10^5 CFU/mL
[8] = M. catarrhalis, 10 h cultivation at 37° C., 5×10^5 CFU/mL
[9] = P. mirabilis, 10 h cultivation at 37° C., 5×10^5 CFU/mL
[10] = P. vulgaris, 10 h cultivation at 37° C., 5×10^5 CFU/mL
[11] = S. marcescens, 10 h cultivation at 37° C., 5×10^5 CFU/mL
[12] = E. coli BL21, 10 h cultivation at 37° C.
[13] = P. aeruginosa, 10 h cultivation at 37° C.
[14] = K. pneumonia, 10 h cultivation at 37° C.
[15] = E. cloacae, 10 h cultivation at 37° C.
[16] = A. hydrophila, 10 h cultivation at 37° C.
[17] = C. diversus, 10 h cultivation at 37° C.
[18] = M. catarrhalis, 10 h cultivation at 37° C.
[19] = P. mirabilis, 10 h cultivation at 37° C.
[20] = P. vulgaris, 10 h cultivation at 37° C.
[21] = S. marcescens, 10 h cultivation at 37° C.

“PRT122 (CAPCQGNGVPVLKGSRCDCICPVGSQGLACE; listed as Homo sapiens)” was tested, and the MIC (E. coli DH5α) was 12.5 µg/mL, the “MIC (μg/mL) E. coli BL21” value (E. coli BL21; E. coli BL21, 96-well plate, 5×10^5 CFU/mL, 37° C., 10 h) was 12.5 µg/mL and the “MIC (μg/mL) P. aeruginosa” value (Pseudomonas aeruginosa; Pseudomonas aeruginosa, 96-well plate, 5×10^5 CFU/mL, 37° C., 10 h) was 12.5 µg/mL. For the same substance, the “MIC (μg/mL) K. pneumonia” value (Klebsiella pneumonia; Klebsiella pneumonia, 96-well plate, 5×10^5 CFU/mL, 37° C., 10 h) was 12.5 µg/mL, the “MIC (μg/mL) E. cloacae” value (Enterobacter cloacae; Enterobacter cloacae, 96-well plate, 5×10^5 CFU/mL, 37° C., 10 h) was 12.5 µg/mL and the “MIC (μg/mL) A. hydrophila” value (Aeromonas hydrophila; Aeromonas hydrophila, 96-well plate, 5×10^5 CFU/mL, 37° C., 10 h) was 12.5 µg/mL. The “MIC (μg/mL) C. diversus” value (Citrobacter diversus; Citrobacter diversus, 96-well plate, 5×10^5 CFU/mL, 37° C., 10 h) was 12.5 µg/mL, the “MIC (μg/mL) M. catarrhalis” value (Moraxella catarrhalis; Moraxella catarrhalis, 96-well plate, 5×10^5 CFU/mL, 37° C., 10 h) was 25 µg/mL and the “MIC (μg/mL) P. mirabilis” value (Proteus mirabilis; Proteus mirabilis, 96-well plate, 5×10^5 CFU/mL, 37° C., 10 h) was 12.5 µg/mL. For the same substance, the “MIC (μg/mL) P. vulgaris” value (Proteus vulgaris; Proteus vulgaris, 96-well plate, 5×10^5 CFU/mL, 37° C., 10 h) was 25 µg/mL and the “MIC (μg/mL) S. marcescens” value (Serratia marcescens; Serratia marcescens, 96-well plate, 5×10^5 CFU/mL, 37° C., 10 h) was 12.5 µg/mL.

In the case of “PRT1353 (SDMSCPNDCHQHGRCVNGMCVCDDGYTGEDCR; listed as Homo sapiens)”, the MIC (E. coli DH5α) was 12.5 µg/mL, the “MIC against E. coli BL21” value (E. coli BL21; E. coli BL21, 5×10^5 CFU/mL, 10 h cultivation at 37° C.) was 25 µg/mL and the “MIC against P. aeruginosa” value (Pseudomonas aeruginosa; Pseudomonas aeruginosa, 5×10^5 CFU/mL, 10 h cultivation at 37° C.) was 50 µg/mL. The “MIC against K. pneumonia” value (Klebsiella pneumonia; Klebsiella pneumonia, 5×10^5 CFU/mL, 10 h cultivation at 37° C.) was 25 µg/mL, the “MIC against E. cloacae” value (Enterobacter cloacae; Enterobacter cloacae, 5×10^5 CFU/mL, 10 h cultivation at 37° C.) was 12.5 µg/mL and the “MIC against A. hydrophila” value (Aeromonas hydrophila; Aeromonas hydrophila, 5×10^5 CFU/mL, 10 h cultivation at 37° C.) was 25 µg/mL. The “MIC against C. diversus” value (Citrobacter diversus; Citrobacter diversus, 5×10^5 CFU/mL, 10 h cultivation at 37° C.) was 50 µg/mL, the “MIC against M. catarrhalis” value (Moraxella catarrhalis; Moraxella catarrhalis, 5×10^5 CFU/mL, 10 h cultivation at 37° C.) was 25 µg/mL and the “MIC against P. mirabilis” value (Proteus mirabilis; Proteus mirabilis, 5×10^5 CFU/mL, 10 h cultivation at 37° C.) was 12.5 µg/mL. The “MIC against P. vulgaris” value (Proteus vulgaris; Proteus vulgaris, 5×10^5 CFU/mL, 10 h cultivation at 37° C.) was 25 µg/mL and the “MIC against S. marcescens” value (Serratia marcescens; Serratia marcescens, 5×10^5 CFU/mL, 10 h cultivation at 37° C.) was 50 µg/mL.

“PRT1081 (APNPCEANGGQGPCSHLCLINYNRTVSCACPHLMKLHKDNTTCY; listed as Homo sapiens)” was tested, and the MIC (E. coli DH5α) was 25 µg/mL, the “MIC E. coli BL21” value (E. coli BL21; [1]) was 12.5 µg/mL and the “MIC P. aeruginosa” value (Pseudomonas aeruginosa; [1]) was 50 µg/mL. For the same substance, the “MIC K. pneumonia” value (Klebsiella pneumonia; [1]) was 12.5 µg/mL, the “MIC E. cloacae” value (Enterobacter cloacae; [1]) was 50 µg/mL and the “MIC A. hydrophila” value (Aeromonas hydrophila; [1]) was 12.5 µg/mL. The “MIC C. diversus” value (Citrobacter diversus; [1]) was 50 µg/mL, the “MIC M. catarrhalis” value (Moraxella catarrhalis; [1]) was 12.5 µg/mL and the “MIC P. mirabilis” value (Proteus mirabilis; [1]) was 25 µg/mL. For the same substance, the “MIC P. vulgaris” value (Proteus vulgaris; [1]) was 50 µg/mL and the “MIC S. marcescens” value (Serratia marcescens; [1]) was 12.5 µg/mL.

For “PRT225 (DIDECSYSSYLCQYRCINEPGRFSCHCPQGYQLLATRLCQ; listed as Homo sapiens)”, the MIC (E. coli DH5α) was 12.5 µg/mL, the “MIC (μg/mL) E. coli BL21” value (E. coli BL21; [2]) was 50 µg/mL and the “MIC (μg/mL) P. aeruginosa” value (Pseudomonas aeruginosa; [3]) was 12.5 µg/mL. For the same substance, the “MIC (μg/mL) K. pneumonia” value (Klebsiella pneumonia; [4]) was 50 µg/mL, the “MIC (μg/mL) E. cloacae” value (Enterobacter cloacae; [5]) was 25 µg/mL and the “MIC (μg/mL) A. hydrophila” value (Aeromonas hydrophila; [6]) was 12.5 µg/mL. For the same substance, the “MIC (μg/mL) C. diversus” value (Citrobacter diversus; [7]) was 25 µg/mL, the “MIC (μg/mL) M. catarrhalis” value (Moraxella catarrhalis; [8]) was 50 µg/mL and the “MIC (μg/mL) P. mirabilis” value (Proteus mirabilis; [9]) was 25 µg/mL. For the same substance, the “MIC (μg/mL) P. vulgaris” value (Proteus vulgaris; [10]) was 12.5 µg/mL and the “MIC (μg/mL) S. marcescens” value (Serratia marcescens; [11]) was 25 µg/mL.

In the case of “PRT423 (QPNTCKDNGPCKQVCSTVGGSAICSCFPGYAIMADGVSCE; listed as Homo sapiens)”, the MIC (E. coli DH5α) was 12.5 µg/mL, the MIC (E. coli BL21; [2]) was 25 µg/mL and the MIC (Pseudomonas aeruginosa; [3]) was 12.5 µg/mL. For the same substance, the MIC (Klebsiella pneumonia; [4]) was 25 µg/mL, the MIC (Enterobacter cloacae; [5]) was 50 µg/mL and the MIC (Aeromonas hydrophila; [6]) was 25 µg/mL. It also gave an MIC (Citrobacter diversus; [7]) of 12.5 µg/mL, an MIC (Moraxella catarrhalis; [8]) of 25 µg/mL and an MIC (Proteus mirabilis; [9]) of 50 µg/mL. The MIC (Proteus vulgaris; [10]) was 25 µg/mL and the MIC (Serratia marcescens; [11]) was 12.5 µg/mL.

“PRT934 (DKNECLSNPCQNGGTCDNLVNGYRCTCKKGFKGYNCQ; listed as Homo sapiens)” gave an MIC (E. coli DH5α) of 12.5 µg/mL, an MIC (E. coli BL21; [12]) of 25 µg/mL and an MIC (Pseudomonas aeruginosa; [13]) of 50 µg/mL. For the same substance, the MIC (Klebsiella pneumonia; [14]) was 12.5 µg/mL, the MIC (Enterobacter cloacae; [15]) was 50 µg/mL and the MIC (Aeromonas hydrophila; [16]) was 25 µg/mL. The MIC (Citrobacter diversus; [17]) was 25 µg/mL, the MIC (Moraxella catarrhalis; [18]) was 12.5 µg/mL and the MIC (Proteus mirabilis; [19]) was 50 µg/mL. It also gave an MIC (Proteus vulgaris; [20]) of 12.5 µg/mL and an MIC (Serratia marcescens; [21]) of 50 µg/mL.

“PRT999 (PEDNCTCHHGHCQRSSCVCDVGWTGPECE; listed as Homo sapiens)” gave an MIC (E. coli DH5α) of 12.5 µg/mL, an MIC (E. coli BL21; [12]) of 50 µg/mL and an MIC (Pseudomonas aeruginosa; [13]) of 25 µg/mL. The MIC (Klebsiella pneumonia; [14]) was 12.5 µg/mL, the MIC (Enterobacter cloacae; [15]) was 25 µg/mL and the MIC (Aeromonas hydrophila; [16]) was 50 µg/mL. The MIC (Citrobacter diversus; [17]) was 12.5 µg/mL, the MIC (Moraxella catarrhalis; [18]) was 25 µg/mL and the MIC (Proteus mirabilis; [19]) was 50 µg/mL. The MIC (Proteus vulgaris; [20]) was 25 µg/mL and the MIC (Serratia marcescens; [21]) was 12.5 µg/mL.
